Reference: the supplement of paper PMC10307832

Key:
Assay in all cases: relative viability (nuclei count vs DMSO), 5 days (fraction); higher = more cells survive
[1] = compound: C(C(=O)C(=O)O)Br [Bromopyruvate] + COc1cccc2cc(-c3nc([C@H]4CC[C@H](C(=O)O)CC4)n4ncnc(N)c34)[nH]c12 [OSI-027] (partner 0.5 µM)
How it was run: (§1)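 After 5 days of treatment, lung cancer cells in 1536-well plates were fixed and stained in a single step (final 0.05% Triton X-100, 1% formaldehyde, 1 ug/ml Hoechst) and their nuclei counted on 4× images. Treatment had been applied by pin tool the day after seeding as one drug alone or as a fixed anchor-drug dose with five library-drug doses (not always all listed) in √10 steps. Relative viability is the nuclei count of treated wells divided by that of vehicle wells, and values are medians of duplicate plates.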

[2] = compound: CC(O)(CS(=O)(=O)c1ccc(F)cc1)C(=O)Nc1ccc(C#N)c(C(F)(F)F)c1 [Bicalutamide] + NC(=O)Nc1cc(-c2cccc(F)c2)sc1C(=O)N[C@H]1CCCNC1 [AZD7762] (partner 0.2 µM)
How it was run: as §1

[3] = compound: CC(O)(CS(=O)(=O)c1ccc(F)cc1)C(=O)Nc1ccc(C#N)c(C(F)(F)F)c1 [Bicalutamide] + CCNC(=O)c1noc(-c2cc(C(C)C)c(O)cc2O)c1-c1ccc(CN2CCOCC2)cc1 [Luminespib] (partner 0.01 µM)
How it was run: as §1

[4] = compound: CC(O)(CS(=O)(=O)c1ccc(F)cc1)C(=O)Nc1ccc(C#N)c(C(F)(F)F)c1 [Bicalutamide] + CS(=O)(=O)CCNCc1ccc(-c2ccc3ncnc(Nc4ccc(OCc5cccc(F)c5)c(Cl)c4)c3c2)o1 [Lapatinib] (partner 2 µM)
How it was run: as §1

LXF-289
relative viability ([1]; first compound 1 µM): 0.809 | relative viability ([1]; first compound 3.162 µM): 0.851 | relative viability ([1]; first compound 10 µM): 0.8 | relative viability ([1]; first compound 31.62 µM): 0.847 | relative viability ([1]; first compound 100 µM): 0.914 | relative viability ([2]; first compound 0.08 µM): 1.17 | relative viability ([2]; first compound 0.253 µM): 1.05 | relative viability ([2]; first compound 0.8 µM): 1.11 | relative viability ([2]; first compound 2.53 µM): 1.1 | relative viability ([3]; first compound 0.08 µM): 0.667 | relative viability ([3]; first compound 0.253 µM): 0.6 | relative viability ([3]; first compound 0.8 µM): 0.637 | relative viability ([3]; first compound 2.53 µM): 0.694 | relative viability ([4]; first compound 0.08 µM): 0.92 | relative viability ([4]; first compound 0.253 µM): 0.845 | relative viability ([4]; first compound 0.8 µM): 0.991 | relative viability ([4]; first compound 2.53 µM): 0.877

NCI-H23
relative viability ([1]; first compound 1 µM): 0.605 | relative viability ([1]; first compound 3.162 µM): 0.695 | relative viability ([1]; first compound 10 µM): 0.612 | relative viability ([1]; first compound 31.62 µM): 0.71 | relative viability ([1]; first compound 100 µM): 0.661 | relative viability ([2]; first compound 0.08 µM): 0.315 | relative viability ([2]; first compound 0.253 µM): 0.236 | relative viability ([2]; first compound 0.8 µM): 0.27 | relative viability ([2]; first compound 2.53 µM): 0.2 | relative viability ([3]; first compound 0.08 µM): 0.223 | relative viability ([3]; first compound 0.253 µM): 0.195 | relative viability ([3]; first compound 0.8 µM): 0.171 | relative viability ([3]; first compound 2.53 µM): 0.212 | relative viability ([4]; first compound 0.08 µM): 1.07 | relative viability ([4]; first compound 0.253 µM): 0.987 | relative viability ([4]; first compound 0.8 µM): 1.38 | relative viability ([4]; first compound 2.53 µM): 0.843

NCI-H322M
relative viability ([1]; first compound 1 µM): 0.515 | relative viability ([1]; first compound 3.162 µM): 0.58 | relative viability ([1]; first compound 10 µM): 0.576 | relative viability ([1]; first compound 31.62 µM): 0.523 | relative viability ([1]; first compound 100 µM): 0.599 | relative viability ([2]; first compound 0.08 µM): 0.581 | relative viability ([2]; first compound 0.253 µM): 0.521 | relative viability ([2]; first compound 0.8 µM): 0.579 | relative viability ([2]; first compound 2.53 µM): 0.572 | relative viability ([3]; first compound 0.08 µM): 0.872 | relative viability ([3]; first compound 0.253 µM): 0.891 | relative viability ([3]; first compound 0.8 µM): 1.03 | relative viability ([3]; first compound 2.53 µM): 1.06 | relative viability ([4]; first compound 0.08 µM): 0.576 | relative viability ([4]; first compound 0.253 µM): 0.602 | relative viability ([4]; first compound 0.8 µM): 0.664 | relative viability ([4]; first compound 2.53 µM): 0.572

NCI-H358
relative viability ([1]; first compound 1 µM): 0.813 | relative viability ([1]; first compound 3.162 µM): 0.758 | relative viability ([1]; first compound 10 µM): 0.956 | relative viability ([1]; first compound 31.62 µM): 0.769 | relative viability ([1]; first compound 100 µM): 0.797 | relative viability ([2]; first compound 0.08 µM): 0.562 | relative viability ([2]; first compound 0.253 µM): 0.489 | relative viability ([2]; first compound 0.8 µM): 0.64 | relative viability ([2]; first compound 2.53 µM): 0.547 | relative viability ([3]; first compound 0.08 µM): 0.488 | relative viability ([3]; first compound 0.253 µM): 0.295 | relative viability ([3]; first compound 0.8 µM): 0.582 | relative viability ([3]; first compound 2.53 µM): 0.32 | relative viability ([4]; first compound 0.08 µM): 0.471 | relative viability ([4]; first compound 0.253 µM): 0.475 | relative viability ([4]; first compound 0.8 µM): 0.524 | relative viability ([4]; first compound 2.53 µM): 0.51

NCI-H460
relative viability ([1]; first compound 1 µM): 0.588 | relative viability ([1]; first compound 3.162 µM): 0.82 | relative viability ([1]; first compound 10 µM): 0.91 | relative viability ([1]; first compound 31.62 µM): 0.661 | relative viability ([1]; first compound 100 µM): 0.728 | relative viability ([2]; first compound 0.08 µM): 0.816 | relative viability ([2]; first compound 0.253 µM): 0.659 | relative viability ([2]; first compound 0.8 µM): 0.76 | relative viability ([2]; first compound 2.53 µM): 0.735 | relative viability ([3]; first compound 0.08 µM): 0.0289 | relative viability ([3]; first compound 0.253 µM): 0.0405 | relative viability ([3]; first compound 0.8 µM): 0.0453 | relative viability ([3]; first compound 2.53 µM): 0.035 | relative viability ([4]; first compound 0.08 µM): 1.08 | relative viability ([4]; first compound 0.253 µM): 0.881 | relative viability ([4]; first compound 2.53 µM): 0.972

NCI-H596
relative viability ([1]; first compound 1 µM): 0.781 | relative viability ([1]; first compound 3.162 µM): 0.711 | relative viability ([1]; first compound 10 µM): 0.84 | relative viability ([1]; first compound 31.62 µM): 0.684 | relative viability ([1]; first compound 100 µM): 0.781 | relative viability ([2]; first compound 0.08 µM): 1.13 | relative viability ([2]; first compound 0.253 µM): 1.04 | relative viability ([2]; first compound 0.8 µM): 1.08 | relative viability ([2]; first compound 2.53 µM): 1.11 | relative viability ([3]; first compound 0.08 µM): 1.08 | relative viability ([3]; first compound 0.253 µM): 0.945 | relative viability ([3]; first compound 0.8 µM): 1.28 | relative viability ([3]; first compound 2.53 µM): 1.14 | relative viability ([4]; first compound 0.08 µM): 1.02 | relative viability ([4]; first compound 0.253 µM): 1.17 | relative viability ([4]; first compound 0.8 µM): 1.16 | relative viability ([4]; first compound 2.53 µM): 1.18

NCI-H647
relative viability ([1]; first compound 1 µM): 0.618 | relative viability ([1]; first compound 3.162 µM): 0.744 | relative viability ([1]; first compound 10 µM): 0.689 | relative viability ([1]; first compound 31.62 µM): 0.653 | relative viability ([1]; first compound 100 µM): 0.633 | relative viability ([2]; first compound 0.08 µM): 0.512 | relative viability ([2]; first compound 0.253 µM): 0.397 | relative viability ([2]; first compound 0.8 µM): 0.549 | relative viability ([2]; first compound 2.53 µM): 0.321 | relative viability ([3]; first compound 0.08 µM): 0.126 | relative viability ([3]; first compound 0.253 µM): 0.114 | relative viability ([3]; first compound 0.8 µM): 0.255 | relative viability ([3]; first compound 2.53 µM): 0.112 | relative viability ([4]; first compound 0.08 µM): 1.07 | relative viability ([4]; first compound 0.253 µM): 0.954 | relative viability ([4]; first compound 0.8 µM): 1.75 | relative viability ([4]; first compound 2.53 µM): 0.748

NCI-H650
relative viability ([1]; first compound 1 µM): 0.584 | relative viability ([1]; first compound 3.162 µM): 0.545 | relative viability ([1]; first compound 10 µM): 0.575 | relative viability ([1]; first compound 31.62 µM): 0.501 | relative viability ([1]; first compound 100 µM): 0.59 | relative viability ([2]; first compound 0.08 µM): 0.847 | relative viability ([2]; first compound 0.253 µM): 1.09 | relative viability ([2]; first compound 0.8 µM): 1.21 | relative viability ([2]; first compound 2.53 µM): 0.886 | relative viability ([3]; first compound 0.08 µM): 0.822 | relative viability ([3]; first compound 0.253 µM): 0.793 | relative viability ([3]; first compound 0.8 µM): 0.947 | relative viability ([3]; first compound 2.53 µM): 0.792 | relative viability ([4]; first compound 0.08 µM): 1.04 | relative viability ([4]; first compound 0.253 µM): 1.07 | relative viability ([4]; first compound 0.8 µM): 1.07 | relative viability ([4]; first compound 2.53 µM): 0.644

NCI-H727
relative viability ([1]; first compound 1 µM): 0.644 | relative viability ([1]; first compound 3.162 µM): 0.624 | relative viability ([1]; first compound 10 µM): 0.682 | relative viability ([1]; first compound 31.62 µM): 0.55 | relative viability ([1]; first compound 100 µM): 0.638 | relative viability ([2]; first compound 0.08 µM): 0.794 | relative viability ([2]; first compound 0.253 µM): 0.563 | relative viability ([2]; first compound 0.8 µM): 0.54 | relative viability ([2]; first compound 2.53 µM): 0.576 | relative viability ([3]; first compound 0.08 µM): 0.366 | relative viability ([3]; first compound 0.8 µM): 0.378 | relative viability ([3]; first compound 2.53 µM): 0.339 | relative viability ([4]; first compound 0.08 µM): 0.945 | relative viability ([4]; first compound 0.253 µM): 0.763 | relative viability ([4]; first compound 0.8 µM): 1.09 | relative viability ([4]; first compound 2.53 µM): 0.77
